Experimental data taken from patent publication US10512630B2, “Compositions and methods for treating cancer” (The Regents Of The University Of California, priority 2015, dated 2019).

Legend:
[1] = test system: MDA-MB-231 triple-negative breast cancer cells; test: Proliferation of MDA-MB-231 triple-negative breast cancer cells in vitro; assay type: cell-based, human; details: for Cell proliferation (% control) as a function of parthenolide analog dose (10 uM). / Cell proliferation (% control) as a function of parthenolide analog dose (50 uM).: MDA-MB-231 cells, data corresponds to FIG. 5; for Antitumor effects compared with dimethylamino-parthenolide (DMAPT): MDA-MB-231, doses 0-50 micromolar, most notable at 10 micromolar, FIG. 2
Method: (§1) FIG. 2: Parthenolides inhibit proliferation of MDAMB231 triple negative breast cancer cells. Parthenolide analogues JD211-JD216 were tested for antitumor activity using triple-negative breast cancer cells (MDA-MB-231) in vitro. Doses ranged from 0-50 micromolar and tumor cell proliferation was assessed using established methods. […] This was most notable at lower compound dose at 10 micromolar. These findings indicate that novel compounds such as JD213, JD214, JD215 and JD216 are more promising candidates for anticancer therapy then DMAPT because these cancers are more sensitive to compounds other than DMAPT.
as §1, with “Parthenolide” for “FIG. 2: Parthenolides inhibit proliferation of MDAMB231 triple negative breast cancer cells. Parthenolide”

[2] = test system: human umbicical vein endothelial cells (HUVEC); test: Proliferation of human umbilical vein endothelial cells (HUVEC) in vitro; assay type: cell-based; details: dosed at 100-nM or at doses up to 10-uM (not shown); FIG. 6

`C/C1=C\CC[C@@]2(C)O[C@H]2[C@H]2OC(=O)[C@@H](CNCC(=O)O)[C@@H]2CC1` [JD211, (((3R,3aS,1bS,E)-6,9a-dimethyl-2-oxo-2,3,3a,4,5,8,9,9a,10a,10b-decahydrooxire-no[2′,3′:9,10]cyclodeca[1,2-b]furan-3-yl)methyl)glycine] was tested, and the “Cell proliferation (% control) as a function of parthenolide analog dose (10 uM).” value [1] was 106.0 % control and the “Cell proliferation (% control) as a function of parthenolide analog dose (50 uM).” value [1] was 105.8 % control.
In the case of `C/C1=C\CC[C@@]2(C)O[C@H]2[C@H]2OC(=O)[C@@H](CNC(C)(C)C(=O)OCc3ccccc3)[C@@H]2CC1` [JD212, Benzyl 2-((((3R,3aS,10bS,E)-6,9a-dimethyl-2-oxo-2,3,3a,4,5,8,9,9a,10a,10b-decahydrooxir-eno[2′,3′:9,10]cyclodeca[1,2-b]furan-3-yl)methyl)amino)-2-methylpropanoate], the “Cell proliferation (% control) as a function of parthenolide analog dose (10 uM).” value [1] is reported as 103.4 % control and the “Cell proliferation (% control) as a function of parthenolide analog dose (50 uM).” value [1] is reported as 100.8 % control.
In the case of `C/C1=C\CC[C@@]2(C)O[C@H]2[C@H]2OC(=O)[C@@H](CN(C)CC(=O)OCc3ccccc3)[C@@H]2CC1` [JD213, Benzyl N-(((3R,3aS,10bS,E)-6,9a-dimethyl-2-oxo-2,3,3a,4,5,8,9,9a,10a,10b-decahydrooxire-no[2′,3′:9,10]cyclodeca[1,2-b]furan-3-yl)methyl)-N-methylglycinate], the “Cell proliferation (% control) as a function of parthenolide analog dose (10 uM).” value [1] is reported as 26.7 % control, the “Cell proliferation (% control) as a function of parthenolide analog dose (50 uM).” value [1] is reported as 0.4 % control and the “Antitumor effects compared with dimethylamino-parthenolide (DMAPT)” value [1] is reported as “greater than that observed with dimethylamino-parthenolide (DMAPT)”.
With `C/C1=C\CC[C@@]2(C)O[C@H]2[C@H]2OC(=O)[C@@H](CN(C)CC(=O)O)[C@@H]2CC1` [JD214, N-(((3R,3aS,10bS,E)-6,9a-Dimethyl-2-oxo-2,3,3a,4,5,8,9,9a,10a,10b-decahydrooxire-no[2′,3′:9,10]cyclodeca[1,2-b]furan-3-yl)methyl)-N-methylglycine] the “Cell proliferation (% control) as a function of parthenolide analog dose (10 uM).” value [1] was 40.0 % control, the “Cell proliferation (% control) as a function of parthenolide analog dose (50 uM).” value [1] was 16.6 % control and the “Antitumor effects compared with dimethylamino-parthenolide (DMAPT)” value [1] was “greater than that observed with dimethylamino-parthenolide (DMAPT)”.
With `C/C1=C\CC[C@@]2(C)O[C@H]2[C@H]2OC(=O)[C@@H](CNC(C)(C)C(=O)O)[C@@H]2CC1` [JD215, 2-((((3R,3aS,10bS,E)-6,9a-Dimethyl-2-oxo-2,3,3a,4,5,8,9,9a,10a,10b-decahydrooxire-no[2′,3′:9,10]cyclodeca[1,2-b]furan-3-yl)methyl)amino)-2-methylpropanoic acid] the “Cell proliferation (% control) as a function of parthenolide analog dose (10 uM).” value [1] was 59.5 % control, the “Cell proliferation (% control) as a function of parthenolide analog dose (50 uM).” value [1] was 0 % control and the “Antitumor effects compared with dimethylamino-parthenolide (DMAPT)” value [1] was “greater than that observed with dimethylamino-parthenolide (DMAPT)”.
With `C/C1=C\CC[C@@]2(C)O[C@H]2[C@H]2OC(=O)[C@@H](CNCC(=O)OCc3ccccc3)[C@@H]2CC1` [JD216, Benzyl (((3R,3aS,10bS,E)-6,9a-dimethyl-2-oxo-2,3,3a,4,5,8,9,9a,10a,10b-decahydrooxire-no[2′,3′:9,10]cyclodeca[1,2-b]furan-3-yl)methyl)glycinate] the “Cell proliferation (% control) as a function of parthenolide analog dose (10 uM).” value [1] was 0 % control, the “Cell proliferation (% control) as a function of parthenolide analog dose (50 uM).” value [1] was 0 % control and the “Suppression of MDA-MB-231 cell proliferation” value ([1]; 100-nM dose (0.1-uM) in vitro, compared to control (P<0.001), FIG. 6) was “effectively suppress”. For the same compound, the “Antitumor effects compared with dimethylamino-parthenolide (DMAPT)” value [1] was “greater than that observed with dimethylamino-parthenolide (DMAPT)” and the “Effect on proliferation of HUVEC” value [2] was “does not significantly alter”.
